{
  "source": "ChEMBL document CHEMBL1201862",
  "about": "“PubChem BioAssay data set” (2004)",
  "assay_in_all_cases": "inhibition of tumour cell growth, NCI panel, 48 h",
  "key": {"[1]": {"test_system": "MDA-N"}, "[2]": {"test_system": "UACC-62"}, "[3]": {"test_system": "SF-268"}, "[4]": {"test_system": "TK-10"}, "[5]": {"test_system": "CCRF-CEM"}, "[6]": {"test_system": "HCT-15"}, "[7]": {"test_system": "OVCAR-8"}, "[8]": {"test_system": "HL-60"}, "[9]": {"test_system": "LOX IMVI"}, "[10]": {"test_system": "NCI-H522"}, "[11]": {"test_system": "UACC-257"}, "[12]": {"test_system": "Malme-3M"}, "[13]": {"test_system": "SR"}, "[14]": {"test_system": "SN12C"}, "[15]": {"test_system": "HCC 2998"}, "[16]": {"test_system": "SK-MEL-2"}, "[17]": {"test_system": "SF-539"}, "[18]": {"test_system": "OVCAR-3"}, "[19]": {"test_system": "A498"}, "[20]": {"test_system": "CAKI-1"}},
  "note": "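Five compound concentrations were applied to cells in 96-well plates for 48 hours; endpoints were derived by simple linear interpolation of the resulting dose-response curve. Here, GI50 denotes the concentration required for 50% inhibition of growth.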 Calls of active or inactive are those of the source. No stated cut-off is given here; in the data, active = GI50 up to about 1.1 µM and inactive = higher.",
  "data": [
    {"smiles": "CCOC(=O)NC(Nc1ccc(F)c(F)c1)(C(=O)OCC)C(F)(F)F", "note": "(stereo not given)", "values": [
      {"measurement": "GI50", "setting": "[1]", "result": "> 100 µM (inactive)"},
      {"measurement": "GI50", "setting": "[2]", "result": "0.186 µM (active)"},
      {"measurement": "GI50", "setting": "[3]", "result": "> 100 µM (inactive)"},
      {"measurement": "GI50", "setting": "[4]", "result": "> 100 µM (inactive)"},
      {"measurement": "GI50", "setting": "[5]", "result": "> 100 µM (inactive)"},
      {"measurement": "GI50", "setting": "[6]", "result": "> 100", "unit": "µM"},
      {"measurement": "GI50", "setting": "[7]", "result": "46 µM (inactive)"},
      {"measurement": "GI50", "setting": "[8]", "result": "20.4 µM (inactive)"},
      {"measurement": "GI50", "setting": "[9]", "result": "0.361 µM (active)"},
      {"measurement": "GI50", "setting": "[10]", "result": "> 100 µM (inactive)"},
      {"measurement": "GI50", "setting": "[11]", "result": "> 100 µM (inactive)"},
      {"measurement": "GI50", "setting": "[12]", "result": "> 100 µM (inactive)"},
      {"measurement": "GI50", "setting": "[13]", "result": "> 100 µM (inactive)"},
      {"measurement": "GI50", "setting": "[14]", "result": "> 100 µM (inactive)"},
      {"measurement": "GI50", "setting": "[15]", "result": "> 100 µM (inactive)"},
      {"measurement": "GI50", "setting": "[16]", "result": "17.5 µM (inactive)"},
      {"measurement": "GI50", "setting": "[17]", "result": "> 100 µM (inactive)"},
      {"measurement": "GI50", "setting": "[18]", "result": "> 100 µM (inactive)"},
      {"measurement": "GI50", "setting": "[19]", "result": "> 100 µM (inactive)"},
      {"measurement": "GI50", "setting": "[20]", "result": "> 100 µM (inactive)"}
    ]}
  ]
}
